Experimental findings from patent US9944600B2, “Piperidine derivatives for GPR119 agonist” (CHONG KUN DANG PHARMACEUTICAL CORP., priority 2012, dated 2018) are described below.

This test addresses T1, human GPR119 receptor (Homo sapiens, UniProt Q8TDV5).
T1 construct: host or cells: GeneBLAzer T-Rex GPR 119 CHO-K1 DA cells (CHO-K1)
T1 sequence (Q8TDV5 1-335): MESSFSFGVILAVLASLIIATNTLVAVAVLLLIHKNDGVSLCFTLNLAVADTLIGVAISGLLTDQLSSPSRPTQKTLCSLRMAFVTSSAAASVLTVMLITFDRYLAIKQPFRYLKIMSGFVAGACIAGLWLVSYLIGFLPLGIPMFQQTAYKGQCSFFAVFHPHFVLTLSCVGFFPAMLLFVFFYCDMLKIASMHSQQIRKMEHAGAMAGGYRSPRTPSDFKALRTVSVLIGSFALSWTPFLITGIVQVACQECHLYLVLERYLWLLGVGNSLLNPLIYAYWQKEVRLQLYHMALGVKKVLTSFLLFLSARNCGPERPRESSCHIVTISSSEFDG
The test is described as follows: Activity test for human GPR119 receptor (GeneBLAzer T-Rex GPR 119 CHO-K1 DA cells, fluorescence reporter). The settings on record: 5 hours treatment; for activity at 0.1 µM: test compound conc. 0.1 μM; for activity at 0.1 µM / activity at 1 µM / activity at 10 µM: human GPR119 CHO-K1 reporter cells, ratio to vehicle control well, read-out: % Activation; for activity at 1 µM: test compound conc. 1 μM; for activity at 10 µM: test compound conc. 10 μM. The class given is cell-based. The method, then:
As a human GPR119 receptor expression cell for this test, the cell line “GeneBLAzer™ T-Rex GPR 119 CHO-K1 DA cells” that is commercially available from Invitrogen, was used. The cell was incubated in the DMEM media containing 1% dialyzed fetal bovine serum etc. The cell incubator was kept at constant temperature and constant humidity of 37° C., 5% CO2.
The human GPR119 receptor expressing cell was used to this test. Each of test compounds was added to be final concentrations of 0.1, 1, 10 μM in 96 well and tested in duplicate. A fixed amount of cell was added to each well of 96 well separately, and then treated with the test compound for 5 hours. After treatment of color development agent for 2 hours, the fluorescence value was determined with plate reader. To the luminous wavelength of control well, which was not treated with the agonist sample, but in which only a vehicle (i.e., cell) was contained, the ratio of the luminous wavelength of test well, which was treated with the agonist sample, was calculated, and then converted to obtain % value.
All the results were expressed as mean±SD, and each test groups and the control group were compared using student's t-test to adjudge the effects of each test groups.

For the compound `CC(C)(F)CN1CCC(COc2ccc(-c3ccc(C(=O)N4CC[C@H](O)C4)cc3)cc2)CC1` [Compound 554, (S)-(4′-((1-(2-fluoro-2-methylpropyl)piperidin-4-yl)methoxy)biphenyl-4-yl)(3-hydroxypyrrolidine-1-yl)methanone], the activity at 0.1 µM is 141%, the activity at 1 µM was found to be 219% and the activity at 10 µM turned out to be 279%.
For the compound `CCC(F)(CC)CN1CCC(COc2cnc(-c3ccc(C(=O)N4CCCC[C@@H]4C(N)=O)c(F)c3)nc2)CC1` [Compound 1055, (R)-1-(4-(5-((1-(2-ethyl-2-fluorobutyl)piperidin-4-yl)methoxy)pyrimidin-2-yl)-2-fluorobenzoyl)piperidine-2-carboxamide], the activity at 0.1 µM was determined as 407%, the activity at 1 µM was 474% and the activity at 10 µM turned out to be 408%.
With `NC(=O)[C@H]1CCCCN1C(=O)c1ccc(-c2ccc(OCC3CCN(CC4(C(F)(F)F)CCC4)CC3)c(F)c2)cc1` [Compound 886, (R)-1-(3′-fluoro-4′-((1-((1-(trifluoromethyl)cyclobutyl)methyl)piperidin-4-yl)methoxy)biphenylcarbonyl)piperidin-2-carboxamide], the activity at 0.1 µM stood at 164%, the activity at 1 µM worked out at 241% and the activity at 10 µM stood at 246%.
In the same order, the values of `O=C(c1ccc(-c2ccc(OCC3CCN(CC4(C(F)(F)F)CC4)CC3)nc2)cc1)N1CCC(CO)CC1` [Compound 587, (4-(hydroxymethyl)piperidin-1-yl)(4-(6-((1-((1-(trifluoromethyl)cyclopropyl)methyl)piperidin-4-yl)methoxy)pyridine-3-yl)phenyl)methanone] are 227%, 288% and 297%.
In the same order, the values of `NC(=O)[C@@H]1CCCN1C(=O)c1ccc(-c2ccc(OCC3CCN(CC4(C(F)(F)F)CCC4)CC3)cc2)cc1` [Compound 635, (S)-1-(4′-((1-((1-(trifluoromethyl)cyclobutyl)methyl)piperidin-4-yl)methoxy)biphenylcarbonyl)pyrrolidine-2-carboxamide] are 265%, 305% and 239%.
Consider `CC(C)(F)CN1CCC(COc2ccc(-c3ccc(C(=O)N4CCC[C@H]4C(N)=O)c(F)c3)cc2)CC1` [Compound 644, (S)-1-(3-fluoro-4′-((1-(2-fluoro-2-methylpropyl)piperidin-4-yl)methoxy)biphenylcarbonyl)pyrrolidine-2-carboxamide], for which the activity at 0.1 µM worked out at 213%, the activity at 1 µM came to 295% and the activity at 10 µM is 294%.
Take `O=C(c1ccc(-c2ccc(OCC3CCN(CC4(C(F)(F)F)CCC4)CC3)nc2)cc1F)N1CC[C@H](O)C1` [Compound 720, (8)-(2-fluoro-4-(6-((1-((1-(trifluoromethyl)cyclobutyl)methyl)piperidin-4-yl)methoxy)pyridine-3-yl)phenyl)(3-hydroxypyrrolidine-1-yl)methanone]: the activity at 0.1 µM came out at 160%, the activity at 1 µM is 228% and the activity at 10 µM worked out at 262%.
`CC(C)(F)CN1CCC(COc2ccc(-c3ccc(C(=O)N4CCOCC4)cc3)cc2)CC1` [Compound 517, (4′-((1-(2-fluoro-2-methylpropyl)piperidin-4-yl)methoxy)biphenyl-4-yl)(morpholino)methanone]: the activity at 0.1 µM was determined as 192%, the activity at 1 µM is 244% and the activity at 10 µM is 291%.
Turning to `CN(CCO)C(=O)c1ccc(-c2ccc(OCC3CCN(CC(C)(C)F)CC3)cc2)cc1` [Compound 551, 4′-((1-(2-fluoro-2-methylpropyl)piperidin-4-yl)methoxy)-N-(2-hydroxyethyl)-N-methylbiphenyl-4-carboxamide], the activity at 0.1 µM amounted to 135%, the activity at 1 µM was 232% and the activity at 10 µM worked out at 288%.
Turning to `NC(=O)[C@@H]1CCCN1C(=O)c1ccc(-c2cnc(OCC3CCN(CC4(C(F)(F)F)CCC4)CC3)cn2)cc1` [Compound 1009, (S)-1-(4-(5-((1-((1-(trifluoromethyl)cyclobutyl)metb.yl)piperidin-4-yl)methoxy)pyrazine-2-yl)benzoyl)pyrrolidine-2-carboxamide], the activity at 0.1 µM turned out to be 235%, the activity at 1 µM came to 314% and the activity at 10 µM was 340%.
With `CC(C)(F)CN1CCC(COc2ccc(-c3ccc(C(=O)N4CC[C@@H](O)C4)cc3)cc2)CC1` [Compound 553, (R)-(4′-((1-(2-fluoro-2-methylpropyl)piperidin-4-yl)methoxy)biphenyl-4-yl)(3-hydroxypyrrolidine-1-yl)methanone], the activity at 0.1 µM came to 149%, the activity at 1 µM stood at 204% and the activity at 10 µM worked out at 253%.
Consider `CC(C)(CN1CCC(COc2ccc(-c3ccc(C(=O)N4CCC[C@@H](O)C4)cc3)cn2)CC1)C(F)(F)F` [Compound 829, (R)-(3-hydroxypiperidin-1-yl)(4-(6-((1-(3,3,3-trifluoro-2,2-dimethylpropyl)piperidin-4-yl)methoxy)pyridin-3-yl)phenyl)methanone], for which the activity at 0.1 µM was 257%, the activity at 1 µM turned out to be 313% and the activity at 10 µM is 303%.
Regarding `NC(=O)[C@@H]1CCCN1C(=O)c1ccc(-c2ccc(OCC3CCN(CC4(C(F)(F)F)CCC4)CC3)nc2)cc1F` [Compound 722, (S)-1-(2-fluoro-4-(6-((1-((1-(trifluoromethyl)cyclobutyl)methyl)piperidin-4-yl)methoxy)pyridine-3-yl)benzoyl)pyrrolidine-2-carboxamide], the activity at 0.1 µM is 198%, the activity at 1 µM is 269% and the activity at 10 µM was 261%.
On to `CC(=O)N1CCN(C(=O)c2ccc(-c3ccc(OCC4CCN(CC(C)(C)F)CC4)cc3)cc2)CC1` [Compound 628, 1-(4-(4′-((1-(2-fluoro-2-methylpropyl)piperidin-4-yl)methoxy)biphenylcarbonyl)piperazin-1-yl)ethanone], for which the activity at 0.1 µM is 138%, the activity at 1 µM was 210% and the activity at 10 µM was determined as 257%.
In the same order, the values of `O=C(c1ccc(-c2ccc(OCC3CCN(CC4(C(F)(F)F)CCC4)CC3)cc2)cc1)N1CCC[C@@H](O)C1` [Compound 794, (R)-(3-hydroxypiperidin-1-yl)(4′-((1-((1-(trifluoromethyl)cyclobutyl)methyl)piperidin-4-yl)methoxy)biphenyl-4-yl)methanone] are 256%, 296% and 252%.
For `CC(C)(F)CN1CCC(COc2ccc(-c3ccc(C(=O)N4CCC[C@H]4C(N)=O)c(F)c3)c(C#N)c2)CC1` [Compound 1028], the activity at 0.1 µM came to 187%, the activity at 1 µM amounted to 348% and the activity at 10 µM is 402%. The “% Activation” value (human GPR119 receptor expressing cell, test concentrations 0.1, 1, 10 μM (concentration not given)) stood at 402%.
Consider `CC(C)(F)CN1CCC(COc2ccc(-c3ccc(C(=O)N4CCC[C@@H]4CO)c(F)c3)cc2)CC1` [Compound 641, (R)-(3-fluoro-4′-((1-(2-fluoro-2-methylpropyl)piperidin-4-yl)methoxy)biphenyl-4-yl)(2-(hydroxymethyl)pyrrolidine-1-yl)methanone], for which the activity at 0.1 µM is 167%, the activity at 1 µM turned out to be 220% and the activity at 10 µM came out at 246%.
`NC(=O)[C@@H]1CCCN1C(=O)c1ccc(-c2ccc(OCC3CCN(CC4(C(F)(F)F)CCC4)CC3)c(F)c2)cc1` [Compound 837, (S)-1-(3′-fluoro-4′-((1-((1-(trifluoromethyl)cyclobutyl)methyl)piperidin-4-yl)methoxy)biphenylcarbonyl)pyrrolidine-2-carboxamide]: the activity at 0.1 µM was 251%, the activity at 1 µM came out at 296% and the activity at 10 µM is 306%.
As for `CC(C)(F)CN1CCC(COc2ccc(-c3ccc(C(=O)N4CCC[C@@H]4CO)cc3)cc2)CC1` [Compound 555, (R)-(4′-((1-(2-fluoro-2-methylpropyl)piperidin-4-yl)methoxy)biphenyl-4-yl)(2-(hydroxymethyl)pyrrolidine-1-yl)methanone], the activity at 0.1 µM amounted to 190%, the activity at 1 µM came out at 269% and the activity at 10 µM is 272%.
In the case of `CCC(F)(CC)CN1CCC(COc2ccc(-c3ccc(C(=O)N4CCC[C@H]4C(N)=O)cc3F)cc2C#N)CC1` [Compound 1119, (S)-1-(3′-cyano-4′-((1-(2-ethyl-2-fluorobutyl)piperidin-4-yl)methoxy)-2-fluorobiphenylcarbonyl)pyrrolidine-2-carboxamide], the activity at 0.1 µM is 406%, the activity at 1 µM stood at 428% and the activity at 10 µM worked out at 482%.
